In ChEMBL document CHEMBL4402597, “Truncated (N)-Methanocarba Nucleosides as Partial Agonists at Mouse and Human A3 Adenosine Receptors: Affinity Enhancement by N6-(2-Phenylethyl) Substitution” (J Med Chem, 2020):

Assays:
[1] = target: T1, Adenosine receptor A1 (Homo sapiens) (UniProt P30542); experiment: Displacement of [3H]R-PIA from recombinant human A1AR expressed in HEK293 cell membranes at 10 uM measured after 60 mins by liquid scintillation counting method relative to control
T1 sequence (whole entry): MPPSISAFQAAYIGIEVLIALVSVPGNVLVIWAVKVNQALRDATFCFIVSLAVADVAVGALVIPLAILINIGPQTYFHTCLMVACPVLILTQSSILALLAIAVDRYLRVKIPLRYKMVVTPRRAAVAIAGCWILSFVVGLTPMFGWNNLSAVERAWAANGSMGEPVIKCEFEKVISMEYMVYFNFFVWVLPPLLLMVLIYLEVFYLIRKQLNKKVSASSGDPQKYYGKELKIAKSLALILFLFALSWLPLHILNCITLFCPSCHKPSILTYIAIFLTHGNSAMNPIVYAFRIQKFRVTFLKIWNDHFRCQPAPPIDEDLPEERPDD

[2] = target: T2, Adenosine receptor A2a (Homo sapiens, UniProt P29274); experiment: Displacement of [3H]CGS21680 from recombinant human A2AAR expressed in HEK293 cell membranes at 10 uM measured after 60 mins by liquid scintillation counting method relative to control
T2 sequence (P29274 whole entry): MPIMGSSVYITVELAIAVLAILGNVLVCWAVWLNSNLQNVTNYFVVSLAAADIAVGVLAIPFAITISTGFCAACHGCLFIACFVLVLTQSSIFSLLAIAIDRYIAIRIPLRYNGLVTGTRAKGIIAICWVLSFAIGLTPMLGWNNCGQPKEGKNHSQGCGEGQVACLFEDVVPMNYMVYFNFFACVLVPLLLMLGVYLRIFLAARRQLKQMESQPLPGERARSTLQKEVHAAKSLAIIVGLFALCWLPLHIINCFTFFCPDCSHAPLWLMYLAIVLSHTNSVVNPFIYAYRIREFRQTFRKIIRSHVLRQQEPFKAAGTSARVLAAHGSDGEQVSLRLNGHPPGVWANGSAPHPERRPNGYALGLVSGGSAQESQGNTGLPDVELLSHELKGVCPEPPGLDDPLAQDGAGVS

[3] = target: T3, Adenosine receptor A3 (Homo sapiens, UniProt P0DMS8); experiment: biochemical
T3 sequence (P0DMS8 whole entry): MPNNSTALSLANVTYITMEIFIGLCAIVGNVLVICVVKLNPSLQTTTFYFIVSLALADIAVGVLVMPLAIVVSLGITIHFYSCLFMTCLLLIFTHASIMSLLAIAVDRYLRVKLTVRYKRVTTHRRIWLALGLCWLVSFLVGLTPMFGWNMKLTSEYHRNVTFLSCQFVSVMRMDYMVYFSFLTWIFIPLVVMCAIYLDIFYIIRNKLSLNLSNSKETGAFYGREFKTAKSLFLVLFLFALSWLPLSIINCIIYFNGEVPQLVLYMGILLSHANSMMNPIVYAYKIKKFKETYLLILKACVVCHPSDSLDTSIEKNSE

[4] = target: T4, Adenosine receptor A3 (Mus musculus, UniProt Q61618); experiment: biochemical
T4 sequence (Q61618 whole entry): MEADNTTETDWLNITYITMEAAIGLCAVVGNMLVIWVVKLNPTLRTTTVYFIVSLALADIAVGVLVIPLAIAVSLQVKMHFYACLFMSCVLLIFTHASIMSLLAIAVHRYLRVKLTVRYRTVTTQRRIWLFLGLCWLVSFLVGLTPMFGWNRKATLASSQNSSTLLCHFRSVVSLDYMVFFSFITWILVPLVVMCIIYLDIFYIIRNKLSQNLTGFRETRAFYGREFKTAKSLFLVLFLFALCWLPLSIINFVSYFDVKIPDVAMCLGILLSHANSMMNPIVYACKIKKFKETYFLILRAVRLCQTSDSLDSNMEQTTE

[5] = target: T3, Adenosine receptor A3; experiment: Partial agonist activity at recombinant human A3AR expressed in HEK293 cells assessed as inhibition of forskolin-stimulated cAMP accumulation measured after 30 mins in presence of A2BAR blocker PSB-603 by Glo-sensor assay; type: functional, cell-based
[6] = target: T5, Adenosine receptor A3 (Homo sapiens) (UniProt P0DMS8); experiment: Partial agonist activity at recombinant human A3AR expressed in HEK293 cells assessed as inhibition of forskolin-stimulated cAMP accumulation at 10 uM measured after 30 mins in presence of A2BAR blocker PSB-603 by Glo-sensor assay relative to Cl-IB-MECA; type: functional, cell-based
T5 sequence (whole entry): T3 sequence (P0DMS8 whole entry)

[7] = target: T5, Adenosine receptor A3 (Homo sapiens); experiment: Partial agonist activity at recombinant human A3AR expressed in HEK293 cells assessed as inhibition of forskolin-stimulated cAMP accumulation by measuring residual cAMP level measured after 30 mins in presence of A2BAR blocker PSB-603 by Glo-sensor assay relative to control; type: functional, cell-based
[8] = target: T6, Adenosine receptor A1 (Mus musculus, UniProt Q60612); experiment: Displacement of [3H]R-PIA from recombinant mouse A1AR expressed in HEK293 cell membranes measured after 60 mins by liquid scintillation counting method
T6 sequence (Q60612 whole entry): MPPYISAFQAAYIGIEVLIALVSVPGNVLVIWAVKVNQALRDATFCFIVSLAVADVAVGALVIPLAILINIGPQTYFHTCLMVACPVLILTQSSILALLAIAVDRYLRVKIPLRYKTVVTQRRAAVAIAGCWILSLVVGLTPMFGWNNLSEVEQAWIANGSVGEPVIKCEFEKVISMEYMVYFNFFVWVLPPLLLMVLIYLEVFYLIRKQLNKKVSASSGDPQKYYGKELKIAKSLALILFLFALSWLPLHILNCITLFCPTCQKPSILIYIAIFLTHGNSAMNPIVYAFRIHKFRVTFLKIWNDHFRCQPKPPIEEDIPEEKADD

[9] = target: Translocator protein (Homo sapiens, UniProt P30536); experiment: Inhibition of TSPO (unknown origin)
Chain of Translocator protein (P30536 whole entry): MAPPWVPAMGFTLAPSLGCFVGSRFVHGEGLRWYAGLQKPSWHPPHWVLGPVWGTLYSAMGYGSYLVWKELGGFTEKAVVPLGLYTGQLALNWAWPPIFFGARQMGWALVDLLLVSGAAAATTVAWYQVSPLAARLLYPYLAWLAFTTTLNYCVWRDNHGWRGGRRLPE

[10] = target: T7, Adenosine receptor A1 (Homo sapiens, UniProt P30542); experiment: Displacement of [3H]R-PIA from recombinant human A1AR expressed in HEK293 cell membranes measured after 60 mins by liquid scintillation counting method
T7 sequence (P30542 whole entry): T1 sequence (whole entry)

[11] = target: T2, Adenosine receptor A2a; experiment: Displacement of [3H]CGS21680 from recombinant human A2AAR expressed in HEK293 cell membranes measured after 60 mins by liquid scintillation counting method
[12] = target: T8, Adenosine receptor A3 (Mus musculus) (UniProt Q61618); experiment: Partial agonist activity at recombinant mouse A3AR expressed in HEK293 cell membranes assessed as stimulation of [35S]GTPgammaS binding measured after 2 hrs in presence of A2BAR blocker PSB-603 by liquid scintillation counting analysis relative to adenosine-5'-Nethyluronamide; type: functional
T8 sequence (whole entry): T4 sequence (Q61618 whole entry)

| SMILES | inhibition [1] | inhibition [2] | Ki [3] | Ki [4] | further results |
| --- | --- | --- | --- | --- | --- |
| O[C@@H]1[C@H](O)[C@@H]2C[C@@H]2[C@H]1n1cnc2c(NCCc3ccc(F)c(F)c3)nc(C#Cc3ccc(Cl)s3)nc21 | 28% | 57% | 47.1 nM | 2520 nM |  |
| O[C@@H]1[C@H](O)[C@@H]2C[C@@H]2[C@H]1n1cnc2c(NCCc3ccccc3)nc(C#Cc3ccc(Cl)s3)nc21 | 10% | 46% | 8.17 nM | 995 nM | EC50 [5]: 2410 nM; Emax [6]: 80%; Emax [7]: 37.6% |
| O[C@@H]1[C@H](O)[C@@H]2C[C@@H]2[C@H]1n1cnc2c(N[C@H]3C[C@@H]3c3ccccc3)nc(C#Cc3ccc(Cl)s3)nc21 | 32% | 44% | 80.5 nM | 1140 nM |  |
| COc1cc(CCNc2nc(C#Cc3ccc(Br)s3)nc3c2ncn3[C@H]2[C@H](O)[C@H](O)[C@@H]3C[C@@H]32)ccc1O | 15% | 38% | 3.24 nM | 26 nM | EC50 [5]: 692 nM; Ki [8]: 2840 nM; Emax [6]: 50%; Emax [7]: 61% |
| COc1cc(CCNc2nc(C#Cc3cccc(F)c3)nc3c2ncn3[C@H]2[C@H](O)[C@H](O)[C@@H]3C[C@@H]32)ccc1O | 38% | 51% | 4.63 nM | 72.2 nM |  |
| COc1cc(CCNc2nc(C#Cc3cccnc3)nc3c2ncn3[C@H]2[C@H](O)[C@H](O)[C@@H]3C[C@@H]32)ccc1O | 36% | 39% | 6.7 nM | 155 nM |  |
| COc1cc(CCNc2nc(I)nc3c2ncn3[C@H]2[C@H](O)[C@H](O)[C@@H]3C[C@@H]32)ccc1O | 50% | 49% | 9.1 nM | 92.5 nM |  |
| Oc1ccc(CCNc2nc(C#Cc3ccccc3)nc3c2ncn3[C@H]2[C@H](O)[C@H](O)[C@@H]3C[C@@H]32)cc1F | 44% | 17% | 9.03 nM | 61.6 nM |  |
| O[C@@H]1[C@H](O)[C@@H]2C[C@@H]2[C@H]1n1cnc2c(NCCc3cccc(F)c3)nc(C#Cc3ccc(Cl)s3)nc21 | 31% | 55% | 42.2 nM | 488 nM | Ki [9]: 200 nM |
| COc1cc(CCNc2nc(C#Cc3ccccc3F)nc3c2ncn3[C@H]2[C@H](O)[C@H](O)[C@@H]3C[C@@H]32)ccc1O |  |  | 5.42 nM | 21.5 nM | Ki [10]: 186 nM; Ki [8]: 620 nM; Ki [11]: 5850 nM |
| COc1ccc(CCNc2nc(C#Cc3ccccc3)nc3c2ncn3[C@H]2[C@H](O)[C@H](O)[C@@H]3C[C@@H]32)cc1O | 49% | 27% | 6.85 nM | 122 nM |  |
| Oc1ccc(CCNc2nc(C#Cc3ccccc3)nc3c2ncn3[C@H]2[C@H](O)[C@H](O)[C@@H]3C[C@@H]32)cc1O | 28% | 27% | 48.8 nM | 39.8 nM | Ki [8]: 1420 nM |
| COc1cc(CCNc2nc(C#Cc3ccc(F)c(F)c3)nc3c2ncn3[C@H]2[C@H](O)[C@H](O)[C@@H]3C[C@@H]32)ccc1O |  | 33% | 12.8 nM | 75 nM | Ki [10]: 341 nM |
| Oc1ccc(CCNc2nc(C#Cc3ccccc3)nc3c2ncn3[C@H]2[C@H](O)[C@H](O)[C@@H]3C[C@@H]32)cc1 | 29% | 32% | 45.6 nM | 76.4 nM |  |
| Cc1cccc(CCNc2nc(C#Cc3ccc(Cl)s3)nc3c2ncn3[C@H]2[C@H](O)[C@H](O)[C@@H]3C[C@@H]32)c1 | 29% | 50% | 106 nM | 675 nM |  |
| COc1cc(CCNc2nc(C#Cc3ccc(F)cc3)nc3c2ncn3[C@H]2[C@H](O)[C@H](O)[C@@H]3C[C@@H]32)ccc1O | 39% | 51% | 6.51 nM | 54.4 nM |  |
| Nc1ccc(CCNc2nc(C#Cc3ccccc3)nc3c2ncn3[C@H]2[C@H](O)[C@H](O)[C@@H]3C[C@@H]32)cc1 | 30% | 26% | 14.2 nM | 60.4 nM |  |
| CCNC(=O)[C@H]1O[C@@H](n2cnc3c(N)ncnc32)[C@H](O)[C@@H]1O |  |  |  |  | Emax [12]: 100% |
| O[C@@H]1[C@H](O)[C@@H]2C[C@@H]2[C@H]1n1cnc2c(NCCc3cccc(Cl)c3)nc(C#Cc3ccc(Cl)s3)nc21 | 39% | 59% | 58.4 nM | 531 nM |  |
| O[C@@H]1[C@H](O)[C@@H]2C[C@@H]2[C@H]1n1cnc2c(NCCc3ccccc3)nc(C#Cc3ccccc3Cl)nc21 |  |  |  | 980 nM |  |
| COc1ccc(CCNc2nc(C#Cc3ccccc3)nc3c2ncn3[C@H]2[C@H](O)[C@H](O)[C@@H]3C[C@@H]32)cc1OC |  | 28% | 16.3 nM | 331 nM | Ki [10]: 208 nM |
| COc1cc(CCNc2nc(C#Cc3ccc(Cl)s3)nc3c2ncn3[C@H]2[C@H](O)[C@H](O)[C@@H]3C[C@@H]32)ccc1O |  | 38% | 9.52 nM | 74.7 nM | Ki [10]: 649 nM |
| O[C@@H]1[C@H](O)[C@@H]2C[C@@H]2[C@H]1n1cnc2c(NCCc3cccc(F)c3)nc(C#Cc3ccccc3)nc21 |  | 27% | 35.9 nM | 264 nM | Ki [10]: 2680 nM |
| O[C@@H]1[C@H](O)[C@@H]2C[C@@H]2[C@H]1n1cnc2c(NCCc3cccc(F)c3)nc(C#Cc3ccc(F)s3)nc21 |  | 48% | 55.8 nM | 404 nM | Ki [10]: 2290 nM |
